Some test systems named below: NCI-H23; OVCAR-4; Malme-3M; MCF7; MDA-MB-231; HT-29; OVCAR-3; SK-MEL-5; COLO 205; HOP-62; UACC-257; RXF 393; CAKI-1; HCT-116; NCI-H522; KM12; HCT-15; CCRF-CEM; LOX IMVI; MOLT-4.
Holding throughout (assay): NCI-60 cell line screen, 48 h

The text below walks through data of ChEMBL document CHEMBL1201862, “PubChem BioAssay data set” (2004).

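Exposure lasted 48 hours, with cells grown in 96-well plates and compounds tested at five concentrations. GI50 is the concentration that inhibits growth by half.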 Calls of active or inactive are those of the source. Cut-off read from the data, not from the text of the source: active = GI50 up to about 1.1 µM and inactive = higher. Bounds are passed on as bounds.

On to `CCc1ncc(CO)n1Cc1cccc2ccccc12`, for which the GI50 is > 100 µM (inactive) in the assay with NCI-H23; > 100 µM (inactive) with OVCAR-4; > 100 µM (inactive) in the assay with Malme-3M; > 100 µM (inactive) in the assay on MCF7; > 100 µM (inactive) in the assay with MDA-MB-231; 96.8 µM (inactive) in the assay on HT-29. Also, the GI50 in the assay on OVCAR-3 was > 100 µM (inactive); with SK-MEL-5, > 100 µM (inactive); with COLO 205, > 100 µM (inactive); in the assay on HOP-62, > 100 µM (inactive); in the assay on UACC-257, 81.8 µM (inactive); in the assay with RXF 393, > 100 µM (inactive). In addition, the GI50 in the assay with CAKI-1 was > 100 µM (inactive); with HCT-116, > 100 µM (inactive); in the assay on NCI-H522 it was > 100 µM (inactive); with KM12, 98.2 µM (inactive); with HCT-15, > 100 µM.
Take `CCN1C(=O)CS/C1=N\NC(=O)CSc1nc2ccccc2c(=O)n1CC`: the GI50 in the assay with NCI-H23, in the assay on OVCAR-4, with Malme-3M, with CCRF-CEM, in the assay with MCF7 and in the assay with LOX IMVI was > 100 µM (inactive) in each case. Further, the GI50 in the assay with MOLT-4, with MDA-MB-231, in the assay with OVCAR-3, in the assay on SK-MEL-5, with COLO 205 and with HOP-62 was > 100 µM (inactive) in each case. Also, the GI50 in the assay with UACC-257 is > 100 µM (inactive); with RXF 393, 65.9 µM (inactive); in the assay with CAKI-1 it was > 100 µM (inactive); with HCT-116, > 100 µM (inactive); with NCI-H522, > 100 µM (inactive); in the assay on KM12, > 100 µM (inactive). Also, the GI50 in the assay with HCT-15 is > 100 µM.
Take `COC1(OC)c2occc2C(=N)c2ccc(=O)oc21`: the GI50 in the assay with NCI-H23 was > 100 µM (inactive); in the assay with OVCAR-4, > 100 µM (inactive); in the assay with Malme-3M, 18.2 µM (inactive); with CCRF-CEM, 85.9 µM (inactive); in the assay on MCF7 it was 81.8 µM (inactive); in the assay on LOX IMVI it was > 100 µM (inactive). The GI50 with MOLT-4 is > 100 µM (inactive); with MDA-MB-231 it was > 100 µM (inactive); in the assay with HT-29 it was > 100 µM (inactive); with OVCAR-3, 77.8 µM (inactive); in the assay with SK-MEL-5, 22.4 µM (inactive); in the assay on COLO 205 it was > 100 µM (inactive). For the same compound, the GI50 with HOP-62, in the assay with UACC-257, with RXF 393, in the assay on CAKI-1, in the assay on HCT-116 and in the assay on NCI-H522 was > 100 µM (inactive) in each case. Moreover, the GI50 in the assay on HCT-15 is > 100 µM.
Turning to `Cc1ccc(N/C(Sc2ccccc2)=C(/C(Cl)=C(Cl)Cl)[N+](=O)[O-])c(C)c1`, the GI50 in the assay on NCI-H23 is 22.9 µM (inactive); in the assay with OVCAR-4, 23.7 µM (inactive); with Malme-3M it was 17.5 µM (inactive); with CCRF-CEM it was 17.9 µM (inactive); in the assay on MCF7, 14.4 µM (inactive); in the assay on LOX IMVI it was 14.5 µM (inactive). Also, the GI50 in the assay with MOLT-4 is 19.6 µM (inactive); with MDA-MB-231, 18.9 µM (inactive); in the assay on HT-29 it was 18.3 µM (inactive); in the assay on SK-MEL-5, 25.1 µM (inactive); in the assay with COLO 205, 20.9 µM (inactive); in the assay with HOP-62 it was 23.8 µM (inactive). Further, the GI50 was 18.2 µM (inactive) in the assay on UACC-257; 17 µM (inactive) in the assay with CAKI-1; 17.1 µM (inactive) with HCT-116; 17.8 µM (inactive) in the assay on NCI-H522; 17.3 µM (inactive) in the assay on KM12; 16.8 µM with HCT-15.
As to `Cn1c(=O)n2n(c1=O)[C@@H](c1ccccc1)[C@H]2c1ccccc1`, the GI50 in the assay with NCI-H23 is 65.6 µM (inactive); with OVCAR-4 it was > 100 µM (inactive); with Malme-3M, > 100 µM (inactive); with CCRF-CEM it was > 100 µM (inactive); with MCF7 it was > 100 µM (inactive); in the assay on LOX IMVI, > 100 µM (inactive). Besides, the GI50 in the assay on MOLT-4, in the assay with MDA-MB-231, in the assay with HT-29, with OVCAR-3, with SK-MEL-5 and in the assay with COLO 205 was > 100 µM (inactive) in each case. Moreover, the GI50 with HOP-62, in the assay on UACC-257, with RXF 393, with CAKI-1, with HCT-116 and with KM12 was > 100 µM (inactive) each time. Further, the GI50 in the assay with HCT-15 was > 100 µM.
`Nc1nc(Cl)cc(NCC2(CO)CCC(CCc3ccccc3)C2)n1` (stereo not given): the GI50 was 2.88 µM (inactive) in the assay on NCI-H23; 11.9 µM (inactive) in the assay with OVCAR-4; 16 µM (inactive) in the assay with Malme-3M; 11.7 µM (inactive) in the assay with MCF7; 7.89 µM (inactive) with LOX IMVI; 2.7 µM (inactive) in the assay with MOLT-4. In addition, the GI50 was 16.6 µM (inactive) in the assay on MDA-MB-231; 7.94 µM (inactive) in the assay on HT-29; 7.45 µM (inactive) with OVCAR-3; 0.0665 µM (active) in the assay with SK-MEL-5; 12.8 µM (inactive) with COLO 205; 1.05 µM (active) in the assay with HOP-62. Further, the GI50 in the assay with UACC-257 is 6.22 µM (inactive); with RXF 393, 14.8 µM (inactive); in the assay on CAKI-1, 13.5 µM (inactive); in the assay on HCT-116, 2.29 µM (inactive); in the assay with NCI-H522, 11.4 µM (inactive); in the assay on KM12 it was 13.9 µM (inactive). The compound also showed a GI50 in the assay on HCT-15 of 16.3 µM.
As for `O=C(/C=C\Nc1ccccc1O)C(Cl)(Cl)Cl`, the GI50 in the assay with NCI-H23 was 35.7 µM (inactive); in the assay on OVCAR-4, 39.1 µM (inactive); in the assay on Malme-3M, 82 µM (inactive); in the assay with CCRF-CEM, 28.1 µM (inactive); with MCF7 it was 20.8 µM (inactive); in the assay with LOX IMVI, 31.8 µM (inactive). For the same compound, the GI50 in the assay with MOLT-4 is 27.7 µM (inactive); in the assay with MDA-MB-231, > 100 µM (inactive); with HT-29, 36.1 µM (inactive); in the assay with OVCAR-3 it was 17.8 µM (inactive); in the assay on SK-MEL-5, > 100 µM (inactive); in the assay on COLO 205, 48.3 µM (inactive). For the same compound, the GI50 is 24.1 µM (inactive) in the assay on HOP-62; 33.5 µM (inactive) in the assay with UACC-257; 33.5 µM (inactive) in the assay with RXF 393; 34.9 µM (inactive) in the assay with CAKI-1; 37.8 µM (inactive) with HCT-116; 22.6 µM (inactive) with NCI-H522. The GI50 in the assay on KM12 is 33.7 µM (inactive); in the assay on HCT-15 it was 38.5 µM.
`Cn1c([C@H](C#N)C(=O)c2cc(O)ccc2[N+](=O)[O-])nc2ccccc21`: the GI50 with NCI-H23 was > 100 µM (inactive); with OVCAR-4, > 100 µM (inactive); with Malme-3M, 17.2 µM (inactive); with CCRF-CEM it was 10.6 µM (inactive); in the assay with MCF7, > 100 µM (inactive); in the assay with LOX IMVI, > 100 µM (inactive). The GI50 in the assay on MOLT-4 was 4.2 µM (inactive); in the assay with MDA-MB-231 it was > 100 µM (inactive); in the assay on HT-29, > 100 µM (inactive); in the assay with OVCAR-3 it was > 100 µM (inactive); in the assay on SK-MEL-5, > 100 µM (inactive); in the assay with COLO 205 it was > 100 µM (inactive). In addition, the GI50 in the assay with HOP-62, with UACC-257, in the assay with CAKI-1, in the assay on HCT-116, in the assay on NCI-H522 and with KM12 was > 100 µM (inactive) each time. Besides, in the assay on HCT-15, the GI50 was > 100 µM.
